Reference: PMC8536124 (International Journal of Molecular Sciences, 2021)
“Also recorded” adds a separate entry of the source. Where two headings read alike, the source gives them in different places.

Key:
[1] = tested on: HeLa, MCF-7, HepG2, B16, and A375 cancer cell lines; parameters: method as in PMID 21496972; conditions: MCF-7, HepG2, B16, A375; cited from earlier work
[2] = tested on: CCRF-CEM cell line; parameters: method as in PMID 27425639; conditions: cited from earlier work
[3] = tested on: A498; test: NCI-60 screening (SRB); assay type: cell-based, human; conditions: A498 renal cancer; 1 dose 10 µM
[4] = tested on: NCI-60 cancer cell line panel; test: NCI-60 screening (SRB), full panel; assay type: cell-based, human; conditions: 1 dose 10 µM; for activity at 10 µM: Homo sapiens, 60 cell lines, 48 h
Excerpt: (§1) The experimental data allow the assessment of the cytostatic effect, indicated by growth inhibition values ranging between 0 and 100, as well as of the cytotoxic effect, indicated by negative values.
(§2) The mean GI50 (molar concentration of the compound that inhibits 50% net cell growth), TGI (molar concentration of the compound leading to the total inhibition), and LC50 (molar concentration of the compound leading to 50% net cell death (presented in negative logarithm)) values across each cell line are shown in Table 2.
(§3) The selectivity index (SI), calculated as the ratio between the full panel MG_MID60 (μM) of compounds 4, 6, and 9 by their respective subpanels MG_MID of the cell line (μM), was introduced as a quantification tool for the selectivity of each compound in terms of anticancer effect (Table 3).
(§4) Primary anticancer assays were performed according to the NCI protocol, as described elsewhere (see e.g., http://dtp.nci.nih.gov accessed on 1 November 2018). The compounds were added at a single concentration, and the cell cultures were incubated for 48 h. The end point determinations were made with a protein-binding dye, sulforhodamine B (SRB). […] The percentage of growth was evaluated spectrophotometrically versus controls not treated with test agents after 48 h exposure and using SRB protein assay to estimate cell viability or growth. Three antitumor activity dose-response parameters were calculated for each cell line. Furthermore, mean graph midpoints (MG_MID) were calculated for each of the parameters, giving an average activity parameter over all cell lines for the tested compound. For the MG_MID calculation, insensitive cell lines were included with the highest concentration tested.

[5] = tested on: Leukemia; test: NCI-60 screening (SRB), subpanel; assay type: cell-based; conditions: leukemia cancer cell lines; 1 dose 10 µM
Excerpt: as §1, §2, §3, §4

[6] = tested on: HL-60(TB); test: NCI-60 screening (SRB); assay type: cell-based, human; conditions: HL-60(TB) (Leukemia); 1 dose 10 µM
[7] = tested on: CAKI-1; test: NCI-60 screening (SRB); assay type: cell-based, human; conditions: CAKI-1 (Renal cancer); 1 dose 10 µM
[8] = tested on: LOX IMVI; test: NCI-60 screening (SRB); assay type: cell-based, human; conditions: LOXIMVI (Melanoma); 1 dose 10 µM
[9] = tested on: KB oral epidermoid cancer cells; parameters: method as in doi:10.1007/BF02974180, PMID 15694457; conditions: cited from earlier work
[10] = tested on: HT29 colorectal cancer cells; parameters: method as in doi:10.1007/BF02974180, PMID 15694457; conditions: cited from earlier work
[11] = tested on: HCT15 colon cancer cells; parameters: method as in doi:10.1007/BF02974180, PMID 15694457; conditions: cited from earlier work
[12] = tested on: A549 non-small lung cancer cells; parameters: method as in doi:10.1007/BF02974180, PMID 15694457; conditions: cited from earlier work
[13] = tested on: NIH3T3 noncancer murine fibroblast cells; parameters: method as in PMID 26044356; conditions: NIH3T3 noncancer murine fibroblasts; cited from earlier work
[14] = tested on: HONE-1 nasopharyngeal cancer cells; parameters: method as in doi:10.1007/BF02974180, PMID 15694457; conditions: cited from earlier work
[15] = tested on: T-lymphoblastic leukemia, breast adenocarcinoma, and cervical cancer cells; conditions: cited from earlier work

Compound | Positive Cytostatic Effect (cell lines with percent growth 0 to 50 / total) [4] | Positive Cytotoxic Effect (cell lines with percent growth <0 / total) [4] | antiproliferative effect in one dose primary screening [4] | activity at 10 µM ([4]; read-out: Mean Growth, %) [%] | activity at 10 µM ([4]; read-out: Range of Growth, %) [%] | also measured
3,23-dihydroxy-17-piperazinyl betulinic amide | – | – | – | – | – | IC50 [1]: < 10 µM
C=C(C)C1CCC2(C(=O)N3CCNCC3)CCC3(C)C(CCC4C5(C)CCC(O)C(C)(C)C5CCC43C)C12 (centres unmarked) [Betulinic acid piperazinyl amide] | – | – | – | – | – | IC50 [2]: 0.8 µM
CCN1CCN(C(=O)[C@]23CCC(C)(C)C[C@H]2C2=CC[C@@H]4[C@@]5(C)CCC(=O)C(C)(C)[C@@H]5CC[C@@]4(C)[C@]2(C)CC3)CC1 [Compound 3, N-(3-oxo-olean-12-en-28-oyl)-ethylpiperazine] | 5/59 | 7/59 | moderate growth inhibition activity | 46 | -35.8 to 80.4 | Growth % [3]: −7.95%; growth percentages, range [5]: −35.82 to 37.47%; Growth % [6]: −35.82%
CCN1CCN(C(=O)[C@]23CCC(C)(C)C[C@H]2C2=CC[C@@H]4[C@@]5(C)C/C(=C/c6ccccn6)C(=O)C(C)(C)[C@@H]5CC[C@@]4(C)[C@]2(C)CC3)CC1 [Compound 5, N-(2-{2-Pyridinylidene}-3-oxoolean-12-en-28-oyl)-ethylpiperazine] | 0/59 | 0/59 | do not exhibit antiproliferative effects; also recorded: do not induce any significant antiproliferative activity | 86.7 | 49.2 to 115 | Growth % [7]: 49.25%
CCN1CCN(C(=O)[C@]23CC[C@@H](C)[C@H](C)[C@H]2C2=CC[C@@H]4[C@@]5(C)C/C(=C/c6ccccn6)C(=O)C(C)(C)[C@@H]5CC[C@@]4(C)[C@]2(C)CC3)CC1 [Compound 8] | 0/59 | 0/59 | do not exhibit antiproliferative effects; also recorded: do not induce any significant antiproliferative activity | 92.4 | 74.8 to 108 | Growth % [8]: 74.76%
C[C@H]1[C@H](C)CC[C@]2(C(=O)O)CC[C@]3(C)C(=CC[C@@H]4[C@@]5(C)CCC(=O)C(C)(C)[C@@H]5CC[C@]43C)[C@H]12 [Ursonic acid] | – | – | – | – | – | IC50 [9]: 4 µM; IC50 [10]: 6.3 µM; IC50 [11]: 4.6 µM; IC50 [12]: 7.7 µM; IC50 [13]: > 50 µM; IC50 [14]: 5.2 µM
C=C(C)C1CCC2(C(=O)N3CCNCC3)CCC3(C)C(CCC4C5(C)CCC(O)C(C)(C)C5CCC43C)C12 (centres unmarked) [piperazine amide of betulinic acid] | – | – | – | – | – | cytotoxicity [15]: 0.7 to 7.8 µM
